The experiment deals with CD2F1 mice, L1210 leukemia ip, survival T/C. The experiment is described as follows: NCI In Vivo Anticancer Drug Screen. Data for tumor model L1210 Leukemia (intraperitoneal) in CD2F1 (CDF1) mice. The note with it: higher = longer survival. An outline of the steps: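 Ratio T/C, where T is the treated-group value and C the vehicle-dosed control value, from mice implanted with a transplantable tumor.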

Setting [1] is: endpoint: mean survival time, dose: 20.0 mg/kg/injection, schedule: Q01DX009 (ip), vehicle: saline.
Where [2] appears, read: endpoint: mean survival time, dose: 100.0 mg/kg/injection, schedule: Q04DX003 (ip), vehicle: saline.
[3] abbreviates: endpoint: mean survival time, dose: 200.0 mg/kg/injection, schedule: Q04DX003 (ip), vehicle: saline.
Setting [4] is: endpoint: mean survival time, dose: 400.0 mg/kg/injection, schedule: Q04DX003 (ip), vehicle: saline.
Setting [5] is: endpoint: mean survival time, dose: 75.0 mg/kg/injection, schedule: Q01DX001 (ip), vehicle: saline with Tween-80.
Setting [6] is: endpoint: mean survival time, dose: 150.0 mg/kg/injection, schedule: Q01DX001 (ip), vehicle: saline with Tween-80.
The mark [7] stands for this setting: endpoint: mean survival time, dose: 100.0 mg/kg/injection, schedule: Q01DX009 (ip), vehicle: saline with Tween-80.
Setting [8] is: endpoint: mean survival time, dose: 200.0 mg/kg/injection, schedule: Q01DX009 (ip), vehicle: saline with Tween-80.

Where “and” joins values, the source holds several entries; their conditions need not be identical. Equal entries are not always repeated. Toxic doses and inconclusive results are not listed.

Take `C1=CC=CN(c2ccccc2)C=C1`: the T/C is 106 % of control (endpoint: mean survival time, dose: 100.0 mg/kg/injection, schedule: Q04DX003 (ip), vehicle: other); 95 % of control (endpoint: mean survival time, dose: 200.0 mg/kg/injection, schedule: Q04DX003 (ip), vehicle: other); 97 % of control (endpoint: mean survival time, dose: 400.0 mg/kg/injection, schedule: Q04DX003 (ip), vehicle: other).

In the case of `CONc1ccn(C2OC(CO)C(O)C2O)c(=O)n1` (stereo not given), the T/C reads like this: (endpoint: mean survival time, dose: 12.5 mg/kg/injection, schedule: Q01DX009 (ip), vehicle: saline) 108 % of control; (endpoint: mean survival time, dose: 25.0 mg/kg/injection, schedule: Q01DX009 (ip), vehicle: saline) 108 % of control; (endpoint: mean survival time, dose: 50.0 mg/kg/injection, schedule: Q01DX009 (ip), vehicle: saline) 117 % of control; (endpoint: mean survival time, dose: 100.0 mg/kg/injection, schedule: Q01DX009 (ip), vehicle: saline) 121 % of control; (endpoint: mean survival time, dose: 200.0 mg/kg/injection, schedule: Q01DX009 (ip), vehicle: saline) 120 % of control; (endpoint: mean survival time, dose: 400.0 mg/kg/injection, schedule: Q01DX009 (ip), vehicle: saline) 97 % of control. Besides, the T/C is 101 % of control (endpoint: median survival time, dose: 12.5 mg/kg/injection, schedule: Q01DX009 (ip), vehicle: saline); 108 % of control (endpoint: median survival time, dose: 25.0 mg/kg/injection, schedule: Q01DX009 (ip), vehicle: saline); 108 % of control (endpoint: median survival time, dose: 50.0 mg/kg/injection, schedule: Q01DX009 (ip), vehicle: saline); 111 % of control (endpoint: median survival time, dose: 100.0 mg/kg/injection, schedule: Q01DX009 (ip), vehicle: saline); 112 % of control (endpoint: median survival time, dose: 200.0 mg/kg/injection, schedule: Q01DX009 (ip), vehicle: saline); 120 % of control (endpoint: median survival time, dose: 400.0 mg/kg/injection, schedule: Q01DX009 (ip), vehicle: saline).

With `CCCCOc1cc(C(=O)NCCN(CC)CC)c2ccccc2n1`, the T/C by setting is: (endpoint: mean survival time, dose: 6.25 mg/kg/injection, schedule: Q01DX009 (ip), vehicle: saline with Tween-80) 102 % of control; (endpoint: mean survival time, dose: 12.5 mg/kg/injection, schedule: Q01DX009 (ip), vehicle: saline with Tween-80) 108 % of control; (endpoint: mean survival time, dose: 25.0 mg/kg/injection, schedule: Q01DX009 (ip), vehicle: saline with Tween-80) 103 % of control.

`CCNCc1cc(Nc2nc(NC3CCC(N(C)C)CC3)c3ccccc3n2)ccc1OC` (stereo not given): the T/C is 97 % of control (endpoint: mean survival time, dose: 5.0 mg/kg/injection, schedule: Q01DX001 (ip), vehicle: saline); 96 % of control (endpoint: mean survival time, dose: 5.0 mg/kg/injection, schedule: Q01DX009 (ip), vehicle: saline); 92 % of control (endpoint: mean survival time, dose: 10.0 mg/kg/injection, schedule: Q01DX001 (ip), vehicle: saline); 96 % of control (endpoint: mean survival time, dose: 10.0 mg/kg/injection, schedule: Q01DX009 (ip), vehicle: saline); 97 % of control (endpoint: mean survival time, dose: 20.0 mg/kg/injection, schedule: Q01DX001 (ip), vehicle: saline); 107 % of control under setting [1].

As to `CN(C)N=Nc1ccc(C(F)(F)F)cc1`, the T/C reads like this: (endpoint: mean survival time, dose: 118.0 mg/kg/injection, schedule: Q01DX009 (ip), vehicle: Klucel (hydroxypropylcellulose) (HPC)) 101 % of control; (endpoint: mean survival time, dose: 177.0 mg/kg/injection, schedule: Q01DX009 (ip), vehicle: Klucel (hydroxypropylcellulose) (HPC)) 102 % of control.

For `COC1=c2\cccc\c2=N\C(OC)=c2\cccc\c2=N\1`, the T/C (endpoint: mean survival time, dose: 100.0 mg/kg/injection, schedule: Q04DX003 (ip), vehicle: saline with Tween-80) was 101 % of control; the T/C (endpoint: mean survival time, dose: 200.0 mg/kg/injection, schedule: Q04DX003 (ip), vehicle: saline with Tween-80) is 101 % of control; the T/C (endpoint: mean survival time, dose: 400.0 mg/kg/injection, schedule: Q04DX003 (ip), vehicle: saline with Tween-80) is 98 % of control.

Turning to `Oc1ccc(Br)cc1/C=N/c1nc(-c2ccccc2)cs1.Oc1ccc(Br)cc1/C=N/c1nc(-c2ccccc2)cs1.[Co]`, the T/C is 100 % of control (endpoint: mean survival time, dose: 100.0 mg/kg/injection, schedule: Q01DX001 (ip), vehicle: saline) and 89 % of control (endpoint: mean survival time, dose: 200.0 mg/kg/injection, schedule: Q01DX001 (ip), vehicle: saline).

For `CCCC/C=N/NC(=O)c1ccc[n+](C)c1`, the T/C was 102 % of control under setting [2], 98 % of control under setting [3] and 105 % of control under setting [4].

For the compound `CN(C)C(C)(C)P(=O)(O)O`, the T/C was 98 % of control under setting [2], 96 % of control under setting [3] and 96 % of control under setting [4].

For `COC1OC2COc3ccccc3OC2C(N)C1N(C)c1ccccc1` (stereo not given), the T/C under setting [5] was 100 % of control and the T/C under setting [6] was 97 % of control.

On to `COc1cc2nc(/C=C/c3nc4cc(OC)c(OC)cc4[nH]3)[nH]c2cc1OC`, for which, for the setting “endpoint: mean survival time, dose: 100.0 mg/kg/injection, schedule: Q01DX001 (ip), vehicle: saline with Tween-80”, the T/C was 106 % of control.

As for `CCCC(C)C1(CC)C(=O)NC(=O)NC1=O` (stereo not given), the T/C is, setting by setting: under setting [1], 95 % of control; (endpoint: mean survival time, dose: 40.0 mg/kg/injection, schedule: Q01DX009 (ip), vehicle: saline) 104 % of control.

Consider `Cc1cccc(NC(=O)/C=C/C(=O)O)c1`, for which the T/C under setting [7] was 94 % of control and the T/C under setting [8] was 100 % of control.

As for `Nc1cc2c(ncn2C2OC(CO)C(O)C2O)c(=O)n1N` (stereo not given), the T/C runs as follows: (endpoint: mean survival time, dose: 12.5 mg/kg/injection, schedule: Q01DX005 (ip), vehicle: distilled water + Tween-80) 96 % of control; (endpoint: mean survival time, dose: 25.0 mg/kg/injection, schedule: Q01DX005 (ip), vehicle: distilled water + Tween-80) 97 % of control; (endpoint: mean survival time, dose: 50.0 mg/kg/injection, schedule: Q01DX005 (ip), vehicle: distilled water + Tween-80) 105 % of control; (endpoint: mean survival time, dose: 100.0 mg/kg/injection, schedule: Q01DX005 (ip), vehicle: distilled water + Tween-80) 94 % of control; (endpoint: mean survival time, dose: 200.0 mg/kg/injection, schedule: Q01DX005 (ip), vehicle: distilled water + Tween-80) 94 % of control.

As to `CCOC1NC(=O)Oc2ccccc21` (stereo not given), the T/C (endpoint: median survival time, dose: 50.0 mg/kg/injection, schedule: Q01DX005 (ip), vehicle: Klucel (hydroxypropylcellulose) (HPC)) is 100 % of control; the T/C (endpoint: median survival time, dose: 100.0 mg/kg/injection, schedule: Q01DX005 (ip), vehicle: Klucel (hydroxypropylcellulose) (HPC)) was 95 % of control; the T/C (endpoint: median survival time, dose: 200.0 mg/kg/injection, schedule: Q01DX005 (ip), vehicle: Klucel (hydroxypropylcellulose) (HPC)) is 108 % of control.

On to `COc1ccc(OCCOC(=O)Nc2c(Cl)cccc2Cl)cc1`, for which the T/C runs as follows: (endpoint: mean survival time, dose: 50.0 mg/kg/injection, schedule: Q01DX009 (ip), vehicle: saline with Tween-80) 98 % of control; under setting [7], 94 % of control; under setting [8], 94 % of control.

As to `CC(=O)C1=CCC2C3CC=C4CC(OC#N)CCC4(C)C3CCC12C` (stereo not given), the T/C under setting [7] is 97 % of control; the T/C under setting [8] was 92 % of control; the T/C (endpoint: mean survival time, dose: 400.0 mg/kg/injection, schedule: Q01DX009 (ip), vehicle: saline with Tween-80) is 89 % of control.

`C=CC[P+](c1ccccc1)(c1ccccc1)c1ccccc1`: the T/C runs as follows: (endpoint: mean survival time, dose: 6.25 mg/kg/injection, schedule: Q01DX001 (ip), vehicle: saline) 101 % of control; (endpoint: mean survival time, dose: 12.5 mg/kg/injection, schedule: Q01DX001 (ip), vehicle: saline) 100 % of control and 112 % of control; (endpoint: mean survival time, dose: 25.0 mg/kg/injection, schedule: Q01DX001 (ip), vehicle: saline) 96 % of control and 103 % of control.

As for `COC1OC2COc3ccccc3OC2C(N)C1Nc1ccccc1` (stereo not given), the T/C runs as follows: under setting [5], 101 % of control; under setting [6], 101 % of control; (endpoint: mean survival time, dose: 300.0 mg/kg/injection, schedule: Q01DX001 (ip), vehicle: saline with Tween-80) 100 % of control.

For `Nc1ccn(C2OC(CO)C(OP(=O)(O)O)C2O)c(=O)n1` (stereo not given), the T/C was 229 % of control (endpoint: mean survival time, dose: 4.4 mg/kg/injection, schedule: Q03HX024 (ip), vehicle: saline); 252 % of control (endpoint: mean survival time, dose: 8.7 mg/kg/injection, schedule: Q03HX024 (ip), vehicle: saline); 296 % of control (endpoint: mean survival time, dose: 17.4 mg/kg/injection, schedule: Q03HX024 (ip), vehicle: saline); 111 % of control (endpoint: mean survival time, dose: 34.8 mg/kg/injection, schedule: Q03HX024 (ip), vehicle: saline); 159 % of control (endpoint: mean survival time, dose: 200.0 mg/kg/injection, schedule: Q01DX009 (oral), vehicle: saline); 175 % of control (endpoint: mean survival time, dose: 400.0 mg/kg/injection, schedule: Q01DX009 (oral), vehicle: saline).
